According to paper PMC5218480 (PLoS ONE, 2017):

System: MV-4-11 cells
Assay: Gene expression microarray analysis (Affymetrix PrimeView) and GSEA
Assay type: cell-based, human
Parameters: RFU PODN (11730768_x_at) / Fold change /veh PODN (11730768_x_at) / RFU LINC00158 (11744669_a_at) / Fold change /veh LINC00158 (11744669_a_at) / RFU DUSP10 (11751237_a_at) / Fold change /veh DUSP10 (11751237_a_at) / RFU ID3 (11757404_x_at) / Fold change /veh ID3 (11757404_x_at) / RFU PLEKHG5 (11737974_s_at) / Fold change /veh PLEKHG5 (11737974_s_at) / RFU LRRC4B (11730491_at) / Fold change /veh LRRC4B (11730491_at) / RFU GIMAP4 (11747438_a_at) / Fold change /veh GIMAP4 (11747438_a_at) / RFU KRT8 (11758183_x_at) / Fold change /veh KRT8 (11758183_x_at) / RFU CNN1 (11734310_a_at) / Fold change /veh CNN1 (11734310_a_at) / RFU VPS37D (11726825_at) / Fold change /veh VPS37D (11726825_at) / RFU C10orf10 (11716522_x_at) / Fold change /veh C10orf10 (11716522_x_at) / RFU KIR2DL2 /// KIR2DL4 /// KIR2DL5A /// KIR2DL5B /// KIR2DS1 /// KIR2DS2 /// KIR2DS3 /// KIR2DS4 /// KIR3DL3 /// KIR3DL3 /// KIR3DS1 (11738374_at) / Fold change /veh KIR2DL2 /// KIR2DL4 /// KIR2DL5A /// KIR2DL5B /// KIR2DS1 /// KIR2DS2 /// KIR2DS3 /// KIR2DS4 /// KIR3DL3 /// KIR3DL3 /// KIR3DS1 (11738374_at) / RFU C1QL1 (11718748_at) / Fold change /veh C1QL1 (11718748_at) / RFU TMPRSS4 (11747572_a_at) / Fold change /veh TMPRSS4 (11747572_a_at) / RFU HAMP (11756126_x_at) / Fold change /veh HAMP (11756126_x_at) / RFU RNFT2 (11725882_a_at) / Fold change /veh RNFT2 (11725882_a_at) / RFU NR4A2 (11747474_a_at) / Fold change /veh NR4A2 (11747474_a_at) / RFU ABCC12 (11746883_a_at) / Fold change /veh ABCC12 (11746883_a_at) / RFU TMEM136 (11760407_x_at) / Fold change /veh TMEM136 (11760407_x_at) / RFU CLDN22 /// WWC2 (11732394_at) / Fold change /veh CLDN22 /// WWC2 (11732394_at) / RFU HLA-DPB1 (11760878_x_at) / Fold change /veh HLA-DPB1 (11760878_x_at) / RFU SPINT1 (11716480_a_at) / Fold change /veh SPINT1 (11716480_a_at) / RFU GAP43 (11754022_s_at) / Fold change /veh GAP43 (11754022_s_at) / RFU A4GNT (11735810_at) / Fold change /veh A4GNT (11735810_at) / RFU PRB3 (11715151_x_at) / Fold change /veh PRB3 (11715151_x_at) / RFU TUBB4B (11761932_at) / Fold change /veh TUBB4B (11761932_at) / RFU CAPN14 (11732068_a_at) / Fold change /veh CAPN14 (11732068_a_at) / RFU TMCC2 (11721928_a_at) / Fold change /veh TMCC2 (11721928_a_at) / RFU IRGQ (11745062_a_at) / Fold change /veh IRGQ (11745062_a_at) / RFU FAM174B (11720279_a_at) / Fold change /veh FAM174B (11720279_a_at) / RFU TMPRSS4 (11748680_a_at) / Fold change /veh TMPRSS4 (11748680_a_at) / RFU FAM212B (11763350_a_at) / Fold change /veh FAM212B (11763350_a_at) / RFU PLEKHG5 (11743358_a_at) / Fold change /veh PLEKHG5 (11743358_a_at) / RFU ZSCAN30 (11745921_a_at) / Fold change /veh ZSCAN30 (11745921_a_at) / RFU CMKLR1 (11741424_a_at) / Fold change /veh CMKLR1 (11741424_a_at) / RFU LOC101060620 /// MAPK8IP1 (11723275_at) / Fold change /veh LOC101060620 /// MAPK8IP1 (11723275_at) / RFU SPTSSB (11747773_x_at) / Fold change /veh SPTSSB (11747773_x_at) / RFU PRSS12 (11739890_at) / Fold change /veh PRSS12 (11739890_at) / RFU BIN1 (11741810_x_at) / Fold change /veh BIN1 (11741810_x_at) / RFU WNT11 (11732464_a_at) / Fold change /veh WNT11 (11732464_a_at) / RFU C10orf10 (11716521_a_at) / Fold change /veh C10orf10 (11716521_a_at) / RFU C5orf56 (11738089_at) / Fold change /veh C5orf56 (11738089_at) / RFU CYB561 (11721691_x_at) / Fold change /veh CYB561 (11721691_x_at) / RFU ANKRD19P (11752326_a_at) / Fold change /veh ANKRD19P (11752326_a_at) / RFU OR2T12 /// OR2T33 /// OR2T8 (11738714_s_at) / Fold change /veh OR2T12 /// OR2T33 /// OR2T8 (11738714_s_at) / RFU VCAN (11748164_a_at) / Fold change /veh VCAN (11748164_a_at) / RFU JSRP1 (11732532_at) / Fold change /veh JSRP1 (11732532_at) / RFU KRTAP10-11 (11738290_x_at) / Fold change /veh KRTAP10-11 (11738290_x_at) / RFU MYO3A (11730013_a_at) / Fold change /veh MYO3A (11730013_a_at) / RFU EBF3 (11725865_a_at) / Fold change /veh EBF3 (11725865_a_at) / RFU CAMK2N1 (11719241_x_at) / Fold change /veh CAMK2N1 (11719241_x_at) / RFU C5orf56 (11738088_a_at) / Fold change /veh C5orf56 (11738088_a_at) / RFU OLFML3 (11715873_a_at) / Fold change /veh OLFML3 (11715873_a_at) / RFU LOC100653217 /// NTM (11731650_a_at) / Fold change /veh LOC100653217 /// NTM (11731650_a_at) / RFU MAPK11 (11762145_a_at) / Fold change /veh MAPK11 (11762145_a_at) / RFU FIZ1 (11724087_x_at) / Fold change /veh FIZ1 (11724087_x_at) / RFU OASL (11726364_x_at) / Fold change /veh OASL (11726364_x_at) / RFU SOX15 (11748057_x_at) / Fold change /veh SOX15 (11748057_x_at) / RFU CD79A (11719716_a_at) / Fold change /veh CD79A (11719716_a_at) / RFU HIST1H1D (11736915_at) / Fold change /veh HIST1H1D (11736915_at) / RFU CASKIN2 (11723855_a_at) / Fold change /veh CASKIN2 (11723855_a_at) / RFU LOC730098 (11760151_x_at) / Fold change /veh LOC730098 (11760151_x_at) / RFU OR4N2 (11742367_at) / Fold change /veh OR4N2 (11742367_at) / RFU PRRT2 (11749266_a_at) / Fold change /veh PRRT2 (11749266_a_at) / RFU SNX32 (11753110_a_at) / Fold change /veh SNX32 (11753110_a_at) / RFU CDHR5 (11726645_a_at) / Fold change /veh CDHR5 (11726645_a_at) / RFU RCAN1 (11760418_a_at) / Fold change /veh RCAN1 (11760418_a_at) / RFU FAM167A (11723789_a_at) / Fold change /veh FAM167A (11723789_a_at) / RFU FAM26E (11764081_at) / Fold change /veh FAM26E (11764081_at) / RFU ISYNA1 (11749810_s_at) / Fold change /veh ISYNA1 (11749810_s_at) / RFU ACY1 (11761880_at) / Fold change /veh ACY1 (11761880_at) / RFU 11764098_at / Fold change /veh 11764098_at / RFU SAMD14 (11745864_x_at) / Fold change /veh SAMD14 (11745864_x_at) / RFU NPB (11741838_a_at) / Fold change /veh NPB (11741838_a_at) / RFU TMPRSS6 (11731388_a_at) / Fold change /veh TMPRSS6 (11731388_a_at) / RFU KRTAP10-2 (11738614_at) / Fold change /veh KRTAP10-2 (11738614_at) / RFU ARHGAP8 /// PRR5-ARHGAP8 (11727945_x_at) / Fold change /veh ARHGAP8 /// PRR5-ARHGAP8 (11727945_x_at) / RFU KRTAP5-7 /// NADSYN1 (11734609_at) / Fold change /veh KRTAP5-7 /// NADSYN1 (11734609_at) / RFU RASL12 (11751679_a_at) / Fold change /veh RASL12 (11751679_a_at) / RFU CDKN2B (11736163_a_at) / Fold change /veh CDKN2B (11736163_a_at) / RFU PRF1 (11729649_at) / Fold change /veh PRF1 (11729649_at) / RFU, ZNF638 /// ZNF638-IT1 / Fold change vs veh, ZNF638 /// ZNF638-IT1 / RFU, PANK3 / Fold change vs veh, PANK3 / RFU, SH3YL1 / Fold change vs veh, SH3YL1 / RFU, ZEB2 / Fold change vs veh, ZEB2 / RFU, NRIP1 / Fold change vs veh, NRIP1 / RFU, PTTG1IP / Fold change vs veh, PTTG1IP / RFU, CAPN2 / Fold change vs veh, CAPN2 / RFU, MED14 / Fold change vs veh, MED14 / RFU, SNORA58 / Fold change vs veh, SNORA58 / RFU, C1orf63 / Fold change vs veh, C1orf63 / RFU, LRRFIP1 / Fold change vs veh, LRRFIP1 / RFU, NDUFAF7 / Fold change vs veh, NDUFAF7 / RFU, SLC12A2 / Fold change vs veh, SLC12A2 / RFU, IBTK / Fold change vs veh, IBTK / RFU, ESF1 / Fold change vs veh, ESF1 / Fold change vs veh, TMEM50B / RFU, TAOK1 / Fold change vs veh, TAOK1 / RFU, ACBD3 / Fold change vs veh, ACBD3 / RFU, TMA16 / Fold change vs veh, TMA16 / RFU, RWDD3 / Fold change vs veh, RWDD3 / RFU, BCAT1 / Fold change vs veh, BCAT1 / RFU, EDEM3 / Fold change vs veh, EDEM3 / RFU, TMEM33 / Fold change vs veh, TMEM33 / RFU, WDR75 / Fold change vs veh, WDR75 / RFU, AHCTF1 / Fold change vs veh, AHCTF1 / RFU, TFRC / Fold change vs veh, TFRC / RFU, ZDHHC17 / Fold change vs veh, ZDHHC17 / RFU, NOM1 / Fold change vs veh, NOM1 / RFU, ARL8B / Fold change vs veh, ARL8B / RFU, ZBTB11 / Fold change vs veh, ZBTB11 / RFU, TAMM41 / Fold change vs veh, TAMM41 / RFU, KIAA1704 /// LOC100996395 / Fold change vs veh, KIAA1704 /// LOC100996395 / RFU, ING1 / Fold change vs veh, ING1 / RFU, TRMT61B / Fold change vs veh, TRMT61B / RFU, FUBP3 / Fold change vs veh, FUBP3 / RFU, TP53 / Fold change vs veh, TP53 / RFU, TNKS2 / Fold change vs veh, TNKS2 / RFU, ZFP14 / Fold change vs veh, ZFP14 / RFU, ACTR2 / Fold change vs veh, ACTR2 / RFU, PPP3R1 / Fold change vs veh, PPP3R1 / RFU, PIK3R1 / Fold change vs veh, PIK3R1 / RFU, HNRNPA1 / Fold change vs veh, HNRNPA1 / RFU, RNF170 / Fold change vs veh, RNF170 / RFU, ZNF28 / Fold change vs veh, ZNF28 / RFU, RNGTT / Fold change vs veh, RNGTT / RFU, OGT / Fold change vs veh, OGT / RFU, BRD1 / Fold change vs veh, BRD1 / RFU, MARS / Fold change vs veh, MARS / RFU, ZNF655 / Fold change vs veh, ZNF655 / RFU, FAHD1 / Fold change vs veh, FAHD1 / RFU, BDP1 / Fold change vs veh, BDP1 / RFU, LRRCC1 / Fold change vs veh, LRRCC1 / RFU, ARID1A / Fold change vs veh, ARID1A / RFU, ZNF146 / Fold change vs veh, ZNF146 / RFU, ZNF330 / Fold change vs veh, ZNF330 / RFU, GPN3 / Fold change vs veh, GPN3 / RFU, C9orf123 / Fold change vs veh, C9orf123 / RFU, N4BP2L2 / Fold change vs veh, N4BP2L2 / RFU, ARFIP1 / Fold change vs veh, ARFIP1 / RFU, FAM179B / Fold change vs veh, FAM179B / RFU, BCL10 / Fold change vs veh, BCL10 / RFU, UHRF1BP1L / Fold change vs veh, UHRF1BP1L / RFU, BET1 / Fold change vs veh, BET1 / RFU, CNOT2 / Fold change vs veh, CNOT2 / RFU, ZNF268 / Fold change vs veh, ZNF268 / Fold change vs veh, ZNF507 / RFU, DGCR2 / Fold change vs veh, DGCR2 / RFU, WDSUB1 / Fold change vs veh, WDSUB1 / Fold change vs veh, HSP90B1 /// MIR3652 / RFU, ADSS / Fold change vs veh, ADSS / RFU, GK / Fold change vs veh, GK / RFU, ZNF148 / Fold change vs veh, ZNF148 / RFU, TAF9 / Fold change vs veh, TAF9 / RFU, SLC1A5 / Fold change vs veh, SLC1A5 / RFU, SLMO2 / Fold change vs veh, SLMO2 / RFU, ABCC4 / Fold change vs veh, ABCC4 / RFU, LOC101060439 /// RAP1B / Fold change vs veh, LOC101060439 /// RAP1B / RFU, RFX7 / Fold change vs veh, RFX7 / RFU, GTPBP10 / Fold change vs veh, GTPBP10 / RFU, CNEP1R1 / Fold change vs veh, CNEP1R1 / RFU, BIVM-ERCC5 /// ERCC5 / Fold change vs veh, BIVM-ERCC5 /// ERCC5 / RFU, ILF3 / Fold change vs veh, ILF3 / RFU 11762660_at / Fold change /veh 11762660_at / RFU VCAN (11757783_s_at) / Fold change /veh VCAN (11757783_s_at) / RFU DDX43 (11728927_at) / Fold change /veh DDX43 (11728927_at) / RFU KRT8 (11758188_x_at) / Fold change /veh KRT8 (11758188_x_at) / RFU NKD1 (11759106_at) / Fold change /veh NKD1 (11759106_at) / RFU SRD5A1 (11742802_a_at) / Fold change /veh SRD5A1 (11742802_a_at) / RFU TPSAB1 /// TPSB2 (11721975_s_at) / Fold change /veh TPSAB1 /// TPSB2 (11721975_s_at) / RFU GSTM3 (11746129_a_at) / Fold change /veh GSTM3 (11746129_a_at) / RFU IL23R (11737362_x_at) / Fold change /veh IL23R (11737362_x_at) / RFU TMEM51 (11727254_a_at) / Fold change /veh TMEM51 (11727254_a_at) / RFU PIWIL2 (11732686_x_at) / Fold change /veh PIWIL2 (11732686_x_at) / RFU ORM1 (11744905_x_at) / Fold change /veh ORM1 (11744905_x_at) / RFU CCDC152 (11743942_at) / Fold change /veh CCDC152 (11743942_at) / RFU ECM1 (11717891_a_at) / Fold change /veh ECM1 (11717891_a_at) / RFU IL23R (11748794_a_at) / Fold change /veh IL23R (11748794_a_at) / RFU TNFAIP8L3 (11732012_x_at) / Fold change /veh TNFAIP8L3 (11732012_x_at) / RFU MBOAT4 (11741988_at) / Fold change /veh MBOAT4 (11741988_at) / RFU 11764193_at / Fold change /veh 11764193_at / RFU TMEM53 (11763286_at) / Fold change /veh TMEM53 (11763286_at) / RFU MAGEB2 (11727129_at) / Fold change /veh MAGEB2 (11727129_at) / RFU TMEM200A (11744735_a_at) / Fold change /veh TMEM200A (11744735_a_at) / RFU CCDC152 (11751479_a_at) / Fold change /veh CCDC152 (11751479_a_at) / RFU FAM211A (11726209_a_at) / Fold change /veh FAM211A (11726209_a_at) / RFU RGS16 (11746705_a_at) / Fold change /veh RGS16 (11746705_a_at) / RFU VCAN (11755009_s_at) / Fold change /veh VCAN (11755009_s_at) / RFU RHOB (11743442_s_at) / Fold change /veh RHOB (11743442_s_at) / RFU RGS16 (11720943_a_at) / Fold change /veh RGS16 (11720943_a_at) / RFU RGS16 (11720944_at) / Fold change /veh RGS16 (11720944_at) / RFU, VPS4B / Fold change vs veh, VPS4B / RFU, CREB1 / Fold change vs veh, CREB1 / RFU, DNAJC13 / Fold change vs veh, DNAJC13 / RFU, GNAQ / Fold change vs veh, GNAQ / RFU, CDK5R1 / Fold change vs veh, CDK5R1 / RFU, ZRANB3 / Fold change vs veh, ZRANB3 / RFU, CUL4A / Fold change vs veh, CUL4A / RFU, CCNY / Fold change vs veh, CCNY / RFU, UFL1 / Fold change vs veh, UFL1 / RFU, COG3 / Fold change vs veh, COG3 / RFU, DIAPH2 / Fold change vs veh, DIAPH2 / RFU, SKA2 / Fold change vs veh, SKA2 / RFU, AFF3 / Fold change vs veh, AFF3 / RFU, LMF1 / Fold change vs veh, LMF1 / RFU, IPO11 / Fold change vs veh, IPO11 / RFU, DFFB / Fold change vs veh, DFFB / RFU, FOXP1 / Fold change vs veh, FOXP1 / RFU, CARD8 / Fold change vs veh, CARD8 / RFU, STRN3 / Fold change vs veh, STRN3 / RFU, ADK / Fold change vs veh, ADK / RFU, RASSF2 / Fold change vs veh, RASSF2 / RFU, WIPF1 / Fold change vs veh, WIPF1 / RFU, LARP1B / Fold change vs veh, LARP1B / RFU, RASA1 / Fold change vs veh, RASA1 / RFU, RB1 / Fold change vs veh, RB1 / RFU, PPFIA1 / Fold change vs veh, PPFIA1 / RFU, MAT2A / Fold change vs veh, MAT2A / RFU, CCT5 / Fold change vs veh, CCT5 / RFU, WDR92 / Fold change vs veh, WDR92 / RFU, CUX1 / Fold change vs veh, CUX1 / RFU, TTC7A / Fold change vs veh, TTC7A / RFU, TMEM135 / Fold change vs veh, TMEM135 / RFU, DEPTOR / Fold change vs veh, DEPTOR / RFU, CPM / Fold change vs veh, CPM / RFU, DNAJB6 / Fold change vs veh, DNAJB6 / RFU, CACNA2D3 / Fold change vs veh, CACNA2D3 / RFU, DTX4 / Fold change vs veh, DTX4 / RFU, TFCP2 / Fold change vs veh, TFCP2 / RFU, GMCL1 /// GMCL1P1 / Fold change vs veh, GMCL1 /// GMCL1P1 / RFU, AEBP2 / Fold change vs veh, AEBP2 / RFU, SNHG1 /// SNORD22 /// SNORD25 /// SNORD26 /// SNORD27 /// SNORD28 /// SNORD29 /// SNORD31 / Fold change vs veh, SNHG1 /// SNORD22 /// SNORD25 /// SNORD26 /// SNORD27 /// SNORD28 /// SNORD29 /// SNORD31 / Fold change (Aza/veh), C12orf56 (ProbeSet 11735607_a_at) / Fold change (ACY-1035/veh), C12orf56 (ProbeSet 11735607_a_at) / Fold change (Aza/veh), FGFR1OP (ProbeSet 11751329_s_at) / Fold change (ACY-1035/veh), FGFR1OP (ProbeSet 11751329_s_at) / Fold change (Aza/veh), VPS36 (ProbeSet 11739960_a_at) / Fold change (ACY-1035/veh), VPS36 (ProbeSet 11739960_a_at) / RFU SYPL1 (11715823_x_at) / Fold change /veh SYPL1 (11715823_x_at) / RFU IGFBP7 (11715501_s_at) / Fold change /veh IGFBP7 (11715501_s_at) / RFU REEP3 (11722064_at) / Fold change /veh REEP3 (11722064_at) / RFU IGLL1 (11728026_x_at) / Fold change /veh IGLL1 (11728026_x_at): dose or concentration left out as unconfirmed
Settings: ProbeSet 11719185_x_at; LIST B

## Nc1ccc(-c2cccs2)cc1NC(=O)c1ccc2c(c1)cc(C1CC1)n2CCN1CCOCC1 [ACY-1035]
  RFU, N4BP2L2: 104.68 RFU
